Bounds are passed on as bounds.

The source of these data is patent US7008636B2, “2,3,5-substituted biphenyls useful in the treatment of insulin resistance and hyperglycemia” (Wyeth, priority 1998, dated 2006).

Broadly, the melting point is the temperature of the solid-liquid transition. Compound `O=C(O)COc1c(Br)cc2oc(C(=O)c3ccccc3)cc2c1Br` [Example 43, (2-Benzoyl-4,6-dibromo-benzofuran-5-yloxy)acetic acid] gave a melting point of 179 to 181 °C.

As for `O=C(O)COc1c(-c2cccc(Cl)c2)cc(C(=O)NCCCCc2ccccc2)cc1-c1cccc(Cl)c1` [Example 54, [3,3″-Dichloro-5′-(4-phenyl-butylcarbamoyl)-[1,1′;3′,1″]terphenyl-2′-yloxy]acetic acid], the melting point was > 164 °C (dec.).

Consider `O=C(O)COc1c(-c2ccccc2)cc(Br)cc1-c1ccccc1` [Example 40, (5′-Bromo-[1,1′;3′,1″]terphenyl-2′-yloxy)-acetic acid], for which the melting point was > 50 °C (dec.).

Regarding `O=C(O)COc1c(Br)cc(C(=O)NCCCC2CCCC2)cc1-c1cccc(Cl)c1` [Example 62, [3-Bromo-3′-chloro-5-(3-cyclopentyl-propylcarbamoyl)-biphenyl-2-yloxy]acetic acid], the melting point is > 135 °C (dec.).

As for `COc1ccc(-c2cc(C(=O)N(CCc3ccccc3)Cc3ccccc3)cc(-c3cccc(C(F)(F)F)c3)c2OCC(=O)O)cc1` [Example 67, [5′-(Benzyl-phenethyl-carbamoyl)-4″-methoxy-3-trifluoromethyl-[1,1′;3′,1″]-terphenyl-2′-yloxy]acetic acid], the melting point is > 82 °C (dec.).

Regarding `CCCCCCCCCCCCNC(=O)c1cc(Br)c(OCCn2ncnn2)c(-c2cccc(C(F)(F)F)c2)c1` [Example 182, 5-Bromo-6-(2-tetrazol-2-yl-ethoxy)-3′-trifluoromethyl-biphenyl-3-carboxylic acid dodecylamide], the melting point lay within 75.6 to 76.2 °C.

Consider `O=C(NCCCCCCCc1ccccc1)c1cc(-c2cccc(C(F)(F)F)c2)c(OCP(=O)(O)O)c(-c2cccc(C(F)(F)F)c2)c1` (hydrate or solvate) [Example 128, [5′-(7-Phenyl-heptylcarbamoyl)-3,3″-bis-trifluoromethyl-[1,1′:3′,1″]terphenyl-2′-yloxymethyl]-phosphonic acid], for which the melting point lay in the range of 160 to 165 °C.

As for `O=C(O)COc1c(Br)cc(C(=O)NCCCc2ccccc2)cc1-c1ccccc1F` [Example 73, [3-Bromo-2′-fluoro-5-(3-phenyl-propylcarbamoyl)-biphenyl-2-yloxy]acetic acid], the melting point was > 90 °C (dec.).

`CCCCCCCCCCCCNC(=O)c1cc(Br)c(OCCn2ccnn2)c(-c2cccc(C(F)(F)F)c2)c1` [Example 181, 5-Bromo-6-(2-[1,2,3]triazol-1-yl-ethoxy)-3′-trifluoromethyl-biphenyl-3-carboxylic acid dodecylamide]: the melting point was in the range of 70.5 to 72.5 °C.

With `O=C(O)COc1c(-c2cccc(Cl)c2)cc(C(=O)NCCCc2ccccc2)cc1-c1cccc(C(F)(F)F)c1` [Example 59, [3″-Chloro-5′-(3-phenyl-propylcarbamoyl)-3-trifluoromethyl-[1,1′;3′,1″]terphenyl-2′-yloxy]acetic acid], the melting point is > 106 °C (dec.).

Compound `COc1ccc(-c2cc(C(=O)NCCCCCCc3ccccc3)cc(-c3cccc(C(F)(F)F)c3)c2OCC(=O)O)cc1` [Example 157, [4″-Methoxy-5′-(6-phenyl-hexylcarbamoyl)-3-trifluoromethyl-[1,1′;3′,1″]terphenyl-2′-yloxy]acetic acid] yielded a melting point of 153 to 159 °C.

For `O=C(O)COc1c(-c2cccc(Cl)c2)cc(C(=O)N(CCc2ccccc2)Cc2ccccc2)cc1-c1cccc(C(F)(F)F)c1` [Example 57, [5′-(Benzyl-phenethyl-carbamoyl)-3″-chloro-3-trifluoromethyl-[1,1′;3′,1″]terphenyl-2′-yloxy]acetic acid], the melting point is > 75 °C (dec.).

Regarding `COc1ccc(-c2cc(C(=O)NCCc3ccccn3)cc(-c3ccccc3F)c2OCC(=O)O)cc1` [Example 70, [2-Fluoro-4″-methoxy-5′-(2-pyridin-2-yl-ethylcarbamoyl)-[1,1′;3′,1″]-terphenyl-2′-yloxy]acetic acid], the melting point is > 102 °C (dec.).
